Test results from ChEMBL document CHEMBL1201862, “PubChem BioAssay data set” (2004).
Activity calls are given as the source filed them.

Experiments:
Cytochrome P450 1A2 = target: T1, Cytochrome P450 1A2 (Homo sapiens, UniProt P05177);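 also: PubChem cytochrome P450 panel assay, CYP1A2 panel member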
T1 sequence (P05177 whole entry): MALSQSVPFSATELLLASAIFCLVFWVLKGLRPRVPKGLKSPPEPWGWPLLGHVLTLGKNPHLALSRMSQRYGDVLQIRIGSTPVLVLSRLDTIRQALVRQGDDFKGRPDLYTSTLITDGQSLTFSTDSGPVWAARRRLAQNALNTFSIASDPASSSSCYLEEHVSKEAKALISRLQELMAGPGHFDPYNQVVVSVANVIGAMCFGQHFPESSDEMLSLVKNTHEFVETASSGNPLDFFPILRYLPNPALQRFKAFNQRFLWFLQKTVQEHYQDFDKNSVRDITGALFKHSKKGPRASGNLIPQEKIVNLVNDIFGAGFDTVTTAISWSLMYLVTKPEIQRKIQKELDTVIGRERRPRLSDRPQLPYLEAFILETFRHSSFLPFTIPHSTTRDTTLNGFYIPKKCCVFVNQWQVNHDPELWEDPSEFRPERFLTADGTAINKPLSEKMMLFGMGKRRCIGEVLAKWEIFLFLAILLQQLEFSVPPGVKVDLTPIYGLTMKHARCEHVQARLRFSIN

Cytochrome P450 2C19 = Cytochrome P450 2C19 (Homo sapiens, UniProt P33261); test: Cytochrome panel assay with activity outcomes. Panel member name: p450-cyp2c19 Compounds with AC50 equal or less than 10 uM are considered active; type: functional
[1] = NIH-3T3 fibroblast cytotoxicity, dose response, cytotoxicity control, cell-based, fluorescence, Alamar Blue, secondary assay (AID 2327); type: functional;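 also: NIH-3T3 mouse fibroblasts cultured with fluconazole at 8 µg/mL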
[2] = C. albicans growth with fluconazole, confirmation, fluorescence, retest (AID 2467); type: functional, cell-based
Streptococcus = test: Group A Streptococcus viability loss, dose response, counter-screen for streptokinase expression inhibitor project, luminescence, BacTiterGlo (AID 1915); type: functional, organism-based;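 also: potency for reduction of bacterial viability or growth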
Streptokinase A = target: T2, Streptokinase A (Streptococcus pyogenes serotype M1, UniProt P10520); test: S. pyogenes streptokinase expression inhibitors, potency, dose response, plasminogen activation absorbance, OD405 (AID 1914); type: functional, Streptococcus pyogenes M1 GAS;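 also: secreted streptokinase activity via plasminogen activation per viability signal from cell pellet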
T2 sequence (P10520 whole entry): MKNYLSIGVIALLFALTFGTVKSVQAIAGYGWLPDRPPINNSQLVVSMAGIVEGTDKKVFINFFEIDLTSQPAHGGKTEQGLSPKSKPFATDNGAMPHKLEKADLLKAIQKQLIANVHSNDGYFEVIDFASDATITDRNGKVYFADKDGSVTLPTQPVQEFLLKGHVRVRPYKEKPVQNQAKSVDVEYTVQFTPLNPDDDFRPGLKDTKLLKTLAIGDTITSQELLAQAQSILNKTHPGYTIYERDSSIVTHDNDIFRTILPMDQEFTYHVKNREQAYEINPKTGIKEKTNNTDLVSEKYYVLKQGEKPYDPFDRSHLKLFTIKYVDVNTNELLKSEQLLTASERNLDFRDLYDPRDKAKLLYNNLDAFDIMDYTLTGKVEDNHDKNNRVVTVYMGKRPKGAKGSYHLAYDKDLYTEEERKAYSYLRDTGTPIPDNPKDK

[3] = system: Streptococcus sp. 'group A'; test: growth inhibition of control SK(-) GAS strain, dose response, counter-screen for streptokinase expression inhibitor project, luminescence, kanamycin, BacTiterGlo, confirmation (AID 1900); type: functional, organism-based
INS1 = test: beta cell apoptosis inhibitors, cytokine rescue, dose response, luminescence, retest (AID 449756); type: functional, cell-based; conditions: Rattus norvegicus;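 also: cell death triggered by IL-1 beta plus TNF-alpha plus IFN-gamma mixture; protective hits raise ATP signal compared with cytokine alone wells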
Cytochrome P450 2C9 = Cytochrome P450 2C9 (Homo sapiens, UniProt P11712)
Cytochrome P450 3A4 = Cytochrome P450 3A4 (Homo sapiens, UniProt P08684);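 also: CYP3A4 tested as one member of a cytochrome P450 panel screen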
Cytochrome P450 2D6 = Cytochrome P450 2D6 (Homo sapiens, UniProt P10635);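 also: CYP2D6 member of a cytochrome P450 panel assay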
[4] = cytotoxicity toward NIH3T3 fibroblasts, dose response, counter-screen, cell-based, ATP luminescence, mouse fibroblasts (AID 2010); type: functional;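 also: cells exposed to compound for about 90 hours before reading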
[5] = inhibitors of intracellular T. cruzi replication, confirmation, NIH3T3 host cells, beta-gal luminescence (AID 2044); type: functional, cell-based;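 also: intracellular parasites grown in NIH/3T3 mouse fibroblasts as host cells; luminescent beta-galactosidase reporter signal from transgenic T. cruzi replicating inside host cells; inhibitors lower the luminescence signal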

Chain of Cytochrome P450 2C9 (P11712 whole entry): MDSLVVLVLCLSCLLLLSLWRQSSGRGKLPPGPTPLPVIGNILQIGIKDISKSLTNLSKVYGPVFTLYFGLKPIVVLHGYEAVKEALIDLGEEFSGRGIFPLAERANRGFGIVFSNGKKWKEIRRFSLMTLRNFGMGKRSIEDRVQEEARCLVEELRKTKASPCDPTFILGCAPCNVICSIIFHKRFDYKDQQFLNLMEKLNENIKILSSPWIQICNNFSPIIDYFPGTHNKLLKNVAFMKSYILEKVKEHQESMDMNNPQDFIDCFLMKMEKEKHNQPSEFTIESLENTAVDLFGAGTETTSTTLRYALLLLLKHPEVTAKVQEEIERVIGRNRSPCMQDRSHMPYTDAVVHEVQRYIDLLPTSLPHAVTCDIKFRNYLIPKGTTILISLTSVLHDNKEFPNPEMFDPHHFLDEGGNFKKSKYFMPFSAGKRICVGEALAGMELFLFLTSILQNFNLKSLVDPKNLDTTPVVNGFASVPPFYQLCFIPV
Chain of Cytochrome P450 2D6 (P10635 whole entry): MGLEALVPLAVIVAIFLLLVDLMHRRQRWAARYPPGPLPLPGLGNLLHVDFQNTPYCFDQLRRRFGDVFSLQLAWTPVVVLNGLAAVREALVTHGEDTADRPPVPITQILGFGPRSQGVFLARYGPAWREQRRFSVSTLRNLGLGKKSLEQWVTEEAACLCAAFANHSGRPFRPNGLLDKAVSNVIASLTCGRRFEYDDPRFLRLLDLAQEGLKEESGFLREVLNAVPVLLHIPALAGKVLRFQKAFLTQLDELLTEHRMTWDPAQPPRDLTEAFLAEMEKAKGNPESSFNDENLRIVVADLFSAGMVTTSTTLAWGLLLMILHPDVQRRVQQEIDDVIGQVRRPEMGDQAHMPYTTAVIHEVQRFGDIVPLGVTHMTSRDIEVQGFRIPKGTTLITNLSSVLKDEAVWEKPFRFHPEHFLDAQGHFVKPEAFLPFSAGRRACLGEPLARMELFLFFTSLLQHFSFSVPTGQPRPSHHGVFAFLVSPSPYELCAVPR
Chain of Cytochrome P450 2C19 (P33261 whole entry): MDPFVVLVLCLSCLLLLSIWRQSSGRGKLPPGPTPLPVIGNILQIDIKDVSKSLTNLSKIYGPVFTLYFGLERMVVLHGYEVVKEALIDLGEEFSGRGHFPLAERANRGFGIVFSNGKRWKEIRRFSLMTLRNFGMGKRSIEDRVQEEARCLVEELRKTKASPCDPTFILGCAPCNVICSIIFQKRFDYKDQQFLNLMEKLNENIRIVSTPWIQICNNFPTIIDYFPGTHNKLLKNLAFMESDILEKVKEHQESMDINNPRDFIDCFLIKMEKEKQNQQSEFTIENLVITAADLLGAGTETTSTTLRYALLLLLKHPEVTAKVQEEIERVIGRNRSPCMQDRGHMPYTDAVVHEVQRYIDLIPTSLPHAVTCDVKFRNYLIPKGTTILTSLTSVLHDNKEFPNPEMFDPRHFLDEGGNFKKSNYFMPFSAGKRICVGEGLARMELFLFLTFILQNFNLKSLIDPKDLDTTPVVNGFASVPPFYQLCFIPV
Chain of Cytochrome P450 3A4 (P08684 whole entry): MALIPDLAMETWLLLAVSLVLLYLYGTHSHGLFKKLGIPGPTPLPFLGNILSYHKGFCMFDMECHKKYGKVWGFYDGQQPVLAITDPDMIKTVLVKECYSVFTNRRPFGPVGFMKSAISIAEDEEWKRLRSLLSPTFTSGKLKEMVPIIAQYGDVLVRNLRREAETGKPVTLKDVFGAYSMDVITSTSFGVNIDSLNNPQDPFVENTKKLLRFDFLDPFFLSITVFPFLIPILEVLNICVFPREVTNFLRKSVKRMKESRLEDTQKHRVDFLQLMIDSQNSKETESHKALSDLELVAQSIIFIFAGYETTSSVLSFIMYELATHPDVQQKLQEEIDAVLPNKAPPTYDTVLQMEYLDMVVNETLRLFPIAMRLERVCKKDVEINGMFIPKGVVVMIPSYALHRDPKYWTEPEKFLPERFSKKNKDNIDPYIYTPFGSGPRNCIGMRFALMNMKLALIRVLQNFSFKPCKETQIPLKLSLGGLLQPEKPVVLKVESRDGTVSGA

## CC(C)(C)c1ccc(OCC(=O)NNC(=O)Cc2cccs2)cc1
Cytochrome P450 1A2
  AC50: 28.2 µM (inconclusive)
Cytochrome P450 2C19; read-out: AC50
  AC50: 20 µM (inconclusive)

## COc1ccc(C2N=C(Nc3ccc(C)cc3)Nc3nc(C)cc(=O)n32)cc1 (centres undefined)
[1]
  EC50: > 160 µM (inactive)
[2]
  EC50: > 38 µM (not active)

## CC1(C)Cc2c(cnn2-c2ccccc2)C(NC(=O)CCCN2CCCC2=O)C1 (centres undefined)
Streptococcus
  EC50: > 150 µM (not active)
Streptokinase A
  EC50: > 150 µM (not active)
[3]
  EC50: > 150 µM (not active)

## O=C(Nc1cccc(F)c1)N1CCCCCC1
Streptococcus
  EC50: > 150 µM (not active)
Streptokinase A
  EC50: > 150 µM (not active)
[3]
  EC50: > 150 µM (not active)

## CCN(CC)S(=O)(=O)c1cccc(NC(=O)c2cc(-c3cccs3)nn2-c2ccccc2)c1
INS1
  AC50: 10.3 µM (active)

## COc1ccc(OCCNS(=O)(=O)c2ccc3oc4ccccc4c3c2)cc1
Cytochrome P450 2C9
  AC50: 2.51 µM (inconclusive)

## Cc1ccc(NS(=O)(=O)c2ccc(C3CCCCC3)cc2)cc1
Streptococcus
  EC50: 7.04 µM (active)
Streptokinase A
  EC50: 4.17 µM (active)
[3]
  EC50: 4.32 µM (active)

## COc1cccc(-c2ccc3ncnc(Nc4ccccc4)c3c2)c1
Cytochrome P450 2C9
  AC50: 0.631 µM (inconclusive)

## O=C(Oc1c(Cl)cc(Cl)c2cccnc12)N1CCOCC1
[1]
  EC50: > 150 µM (inactive)
[2]
  EC50: > 38 µM (not active)

## Cc1c(C(=O)NCCC2=CCCCC2)cccc1[N+](=O)[O-]
Cytochrome P450 3A4
  AC50: 14.1 µM (inconclusive)
Cytochrome P450 2D6
  AC50: 15.8 µM (inconclusive)
Cytochrome P450 1A2
  AC50: 15.8 µM (inconclusive)

## CC(=O)NCCNc1nc(-c2cccc(NS(C)(=O)=O)c2)nc2ccccc12
Cytochrome P450 2D6
  AC50: 10 µM (inconclusive)
Cytochrome P450 2C19; read-out: AC50
  AC50: 39.8 µM (inconclusive)

## COc1ccc(-c2nc(-c3ccncc3)no2)cc1OC
[1]
  EC50: > 160 µM (inactive)
[2]
  EC50: 5.21 µM (active)

## COCCn1c(=O)c(-c2ccc(Cl)cc2)nc2cnc(OC)nc21
Cytochrome P450 2D6
  AC50: 25.1 µM (inconclusive)
Cytochrome P450 2C9
  AC50: 39.8 µM (inconclusive)

## Cc1ccc(NC(=O)c2cccc(OCc3c(C)noc3C)c2)cc1S(=O)(=O)Nc1ccccc1Cl
Streptococcus
  EC50: 57.1 µM (active)
Streptokinase A
  EC50: > 150 µM (not active)

## CN(Cc1ccco1)c1ncnc2ccc(-c3cccc(NS(C)(=O)=O)c3)cc12
Cytochrome P450 2C9
  AC50: 0.794 µM (inconclusive)

## O=C(O)CSCC(=O)N(Cc1ccccc1)c1nc(-c2ccccc2)c(-c2ccccc2)s1
Streptococcus
  EC50: 8.03 µM (active)
Streptokinase A
  EC50: 2.81 µM (active)
[3]
  EC50: 0.996 µM (active)

## Cc1cccc(CSc2nc(N)c(C#N)c(-c3cccs3)c2C#N)c1
[4]
  EC50: > 60 µM (inconclusive)
[5]
  EC50: 2.31 µM (active)
Streptococcus
  EC50: > 150 µM (not active)
Streptokinase A
  EC50: 4.93 µM (active)
[3]
  EC50: 5.04 µM (active)

## CCOC(=O)c1sc(NC(C)=O)nc1-c1ccccc1
Cytochrome P450 2C19; read-out: AC50
  AC50: 10 µM (inconclusive)

## CC(C)c1ccc(COc2ccc(C(=O)N3CCOCC3)cc2)cc1
INS1
  AC50: 9.42 µM (active)

## FC(F)(F)Oc1ccc(N=C(S)Nc2ccc(OC(F)(F)F)cc2)cc1
Streptococcus
  EC50: 22 µM (active)
Streptokinase A
  EC50: > 150 µM (not active)
[3]
  EC50: 15.8 µM (active)

## CO[C@@H](C)[C@](O)(C(=O)OCC1=CCN2CC[C@@H](O)[C@H]12)C(C)C
Cytochrome P450 2D6
  AC50: 3.98 µM (inconclusive)
Cytochrome P450 2C19
  AC50: inconclusive

## COc1ccc2[nH]cc(CCNc3ncnc4ccc(-c5c(C)noc5C)cc34)c2c1
Cytochrome P450 2C9
  AC50: 0.501 µM (inconclusive)

## Cn1ncc2c(Nc3ccc(Cl)c(Cl)c3)ncnc21
Streptococcus
  EC50: 16 µM (active)
Streptokinase A
  EC50: > 150 µM (not active)
[3]
  EC50: 7.9 µM (active)

## CCN(CC)c1nc(N)c2c(N)nc3c(c2c1C#N)CC(c1ccccc1)O3 (centres undefined)
[1]
  EC50: > 160 µM (inactive)
[2]
  EC50: > 38 µM (not active)

## Cc1ccc(-c2csc(NNC(=O)c3ccccc3)n2)cc1
Streptococcus
  EC50: > 150 µM (not active)
Streptokinase A
  EC50: > 150 µM (not active)
[3]
  EC50: 4.37 µM (active)
